Series [1] has as its system hyperammonemia rats. Kind of series: Blood ammonia reducing experiment (in injection), acetamide-treated rats. Type of series: in vivo, SD rats. To be noted: for Blood ammonia concentration / Reduction rate: i.p. for 4 days, sodium glutamate 410 mg/kg. On the procedure:
The animals used in this experiment were 50 healthy male SD rats weighing 250-300 g. They were randomly divided into 5 groups, that is, group of normal control, experimental control (acetamide group), sodium glutamate/acetamide group, Dihydortanshinone I/acetamide group and tanshinone IIA/acetamide group. The rats in all those groups except the normal control group were injected intraperitoneally with saline, sodium glutamate injection (with a dose of 410 mg/kg), saline solution of Dihydortanshinone I (containing small amount of surface active agent, with a dose of 10 mg/kg), saline solution of tanshinone IIA (containing small amount of surface active agent, with a dose of 10 mg/kg) respectively. 45 min after the injection, the rats in all those groups except control group were injected intraperitoneally with 5.5 mmol/kg acetamide. Above injections continued for 4 days. In the 4th day, 30 min after the acetamide injection, blood samples of the rats in each group were collected by eyeball removing method immediately, and processed with the anticoagulant EDTA-Na, then the blood ammonia concentration was determined using conventional method. […] The dose of […] in this example and following examples was settled with the reference of its actual clinical dose. The method for determining the blood ammonia concentration in this example and following examples was enzyme-UV method, the instrument used was HITACHI-7170 automatic analyzer, and the kit used was AMMONIA kit.
(§1) With the same experiment method, 90 min after the acetamide injection at the 4th day, blood samples of the rats in each group were collected by eyeball removing method immediately, and processed with the anticoagulant EDTA-Na, then the blood ammonia concentration was determined.
The animals used in this experiment were 40 healthy male SD rats weighing 250-300 g. They were randomly divided into 4 groups, that is, normal control group, experimental control group (acetamide group), sodium glutamate/acetamide group, and Cryptotanshinone/acetamide group. The rats in all those groups except the normal control group were injected intraperitoneally with saline, sodium glutamate injection (with a dose of 410 mg/kg), and saline solution of Cryptotanshinone (containing small amount of surface active agent, with a dose of 10 mg/kg) respectively. 45 min after the injection, the rats in all those groups except the normal control group were injected intraperitoneally with 5.5 mmol/kg acetamide. Above injections continued for 4 days. In the 4th day, 30 min after the acetamide injection, blood samples of the rats in each group were collected by eyeball removing method immediately, and processed with the anticoagulant EDTA-Na, then the blood ammonia concentration was determined.

Series [2] deals with hyperammonemia rats. The series can be described thus: Blood ammonia reducing experiment (in oral), acetamide-treated rats. Type of series: in vivo, SD rats. As for the experimental part: In the 4th day, 30 min after the acetamide injection, blood samples of the rats in each group were collected by eyeball removing method immediately, and processed with the anticoagulant EDTA-Na, then the blood ammonia concentration was determined.
as §1

Series [3] concerns healthy male mice. Kind of series: Acute toxicity test in mouse. The source says: Acute toxicity test in mouse: The animals used in this study were healthy male mice. The drug was administrated intragastrically for 7 days once daily.
For series [4], the system named is healthy male mice. The series can be described thus: 30 days toxicity test in mouse. Type of series: in vivo. To be noted: intragastric, 200 mg/kg day. As for the experimental part:
The drug was continually administrated intragastrically for 30 days with dose of 200 mg/kg day.

The subject of series [5] is acute hepatocirrhosis hyperammnonemia rat model. The series can be described thus: Coma and death caused by acute hepatocirrhosis in rats (in injection). Type of series: in vivo, SD rats. To be noted: Table 9; i.p. 4 days, Cryptotanshinone 10 mg/kg, sodium glutamate 410 mg/kg; tetrachloro-methane peanut oil; 8.5 mmol/kg acetamide i.p. on 4th day. On the procedure:
The animals used in this experiment were 40 healthy male SD rats weighing 250-300 g. They were randomly divided into 4 groups, that is, group of normal control, experimental control (acetamide group), sodium glutamate/acetamide group, and Cryptotanshinone/acetamide group. The rats in all those groups except the normal control group were injected intraperitoneally with saline, sodium glutamate injection (with a dose of 410 mg/kg), and saline solution of Cryptotanshinone (containing small amount of surface active agent, with a dose of 10 mg/kg) respectively. 45 min after the injection, the rats in all those groups except the normal control group were injected intraperitoneally with peanut oil containing 0.1% tetrachloro-methane. Above injections continued for 4 days. In the 4th day, 45 min after the tetrachloride peanut oil injection, the rats in each group (including the normal control group) were injected intraperitoneally with 8.5 mmol/kg acetamide solution. The time from acetamide injection to coma (latent period), from coma to awakening (coma time) and death rate in rats was recorded.

Series [6] shares this test system. Kind of series: Coma and death caused by acute hepatocirrhosis in rats (in oral). The note with it: Table 10; Cryptotanshinone oral 100 mg/kg; tetrachloro-methane peanut oil; 8.5 mmol/kg acetamide i.p. on 4th day. Type of series: in vivo, SD rats. As for the experimental part:
The time from acetamide injection to coma (latent period), from coma to awakening (coma time) and death rate in rats was recorded.

[7] abbreviates: Table 3, Cryptotanshinone 10 mg/kg, blood 30 min after acetamide on 4th day.
Setting [8] is: Table 4, Cryptotanshinone 10 mg/kg, blood 90 min after acetamide on 4th day.
Setting [9] is: Table 7, Cryptotanshinone in oral (intragastric 100 mg/kg), blood 30 min after acetamide on 4th day.
Setting [10] is: Table 8, Cryptotanshinone in oral (intragastric 100 mg/kg), blood 90 min after acetamide on 4th day.
The mark [11] stands for this setting: Table 1, tanshinones 10 mg/kg, blood 30 min after 5.5 mmol/kg acetamide on 4th day.
Where [12] appears, read: Table 1, tanshinones 10 mg/kg, blood 30 min after acetamide on 4th day.
[13] abbreviates: Table 2, tanshinones 10 mg/kg, blood 90 min after acetamide on 4th day.
Where [14] appears, read: Table 5, tanshinones intragastric 100 mg/kg, acetamide 120 min later, blood 30 min after acetamide on 4th day.
The mark [15] stands for this setting: Table 6, tanshinones intragastric 100 mg/kg, blood 90 min after acetamide on 4th day.

The structures appear in SMILES notation.

Results on four molecules are retold here after US20040024056A1, “Dihydrofuran cyclic tanshinones used in treating hyperammonemia and hepatic encephalopathy” (priority 2001, published 2004).

For orientation: LD50 means the dose expected to kill half of the subjects tested.

In series [1] (setting [7]), `C[C@H]1COC2=C1C(=O)C(=O)c1c2ccc2c1CCCC2(C)C` [Cryptotanshinone, 1,6,6-trimethyl-1,2,6,7,8,9-hexahydrophenanthrene[1,2-b]furan-10,11-dione] registered a Blood ammonia concentration of 420 µmol/L and a Reduction rate of 60%. In addition, in series [1] (setting [8]), the Blood ammonia concentration was found to be 110 µmol/L and the Reduction rate came out at 100%. Also, in series [2] (setting [9]), the Blood ammonia concentration was 470 µmol/L and the Reduction rate is listed as 54%. In series [2] (setting [10]), the Blood ammonia concentration is 120 µmol/L and the Reduction rate was 97%. This molecule also returned an LD50 in series [3] (mice, intragastric, once daily for 7 days) of over 1500 mg/kg. Also, in series [3] (mice, intragastric, once daily for 7 days, dose up to 1.5 g/kg), the “Toxic symptom or death” value was “no toxic symptom or death”. Besides, in series [3] (summary statement), the “Toxicity, overall conclusion” value is “safe to use as drug in normal dosage”. In series [4], the Death of mice entry is given as “no death of mice manifested”; the “Growth and development, hematopoietic function, biochemical index” value was “no apparent abnormal change or toxic reaction”; the “Pathology of major organs (anatomical and tissue microscopy inspection)” value is “No pathology change of major organs”. Also, in series [5], the “Coma time (from coma to awakening)” value was determined as 65 min, the “Latent period (time from acetamide injection to coma)” value (“Latent period” below) came out at 12 min and the Mortality came out at 20%. In series [6], the “Coma time (from coma to awakening)” value turned out to be 75 min, the “Latent period” value came to 12 min and the Mortality was found to be 20%.
On to `Cc1cccc2c3c(ccc12)C1=C(C(=O)C3=O)C(C)CO1` (centres unmarked) [Dihydortanshinone I, 1,6-dimethyl-1,2-dihydrophenanthrene[1,2-b]furan-10,11-dione], for which the Blood ammonia concentration was found to be 490 µmol/L in series [1] (setting [11]), 125 µmol/L in series [1] (setting [13]), 550 µmol/L in series [2] (setting [14]) and 135 µmol/L in series [2] (setting [15]). For the same molecule, the Reduction rate in series [1] (setting [12]) came out at 51%; in series [1] (setting [13]) it was 96%; in series [2] (setting [14]) it was 44%; in series [2] (setting [15]) it was 89%.
Turning to `N[C@@H](CCC(=O)[O-])C(=O)[O-].[Na+].[Na+]` [Sodium Glutamate], the Blood ammonia concentration in series [1] (setting [11]) came out at 480 µmol/L; in series [1] (setting [13]), 120 µmol/L; in series [1] (setting [7]), 480 µmol/L; in series [1] (setting [8]), 110 µmol/L; in series [2] (setting [14]), 510 µmol/L; in series [2] (setting [15]) it was 130 µmol/L. The Blood ammonia concentration in series [2] (setting [9]) came out at 510 µmol/L; in series [2] (setting [10]), 130 µmol/L. Further, the Reduction rate in series [1] (setting [12]) is 53%; in series [1] (setting [13]), 97%; in series [1] (setting [7]) it was 53%; in series [1] (setting [8]), 100%; in series [2] (setting [14]) it was 49%; in series [2] (setting [15]) it was 91%. Moreover, the Reduction rate is 49% in series [2] (setting [9]) and 91% in series [2] (setting [10]). Also, the results for the “Coma time (from coma to awakening)” value in series [5] and in series [6] were 75 min and 90 min, respectively. Moreover, the entries for the “Latent period” value in series [5] and in series [6] were 11 min and 9 min, respectively. In addition, the Mortality in series [5] and in series [6] was 50% throughout.
As for `Cc1coc2c1C(=O)C(=O)c1c-2ccc2c1CCCC2(C)C` [Tanshinone IIA], the Blood ammonia concentration in series [1] (setting [11]) came to 850 µmol/L; in series [1] (setting [13]), 265 µmol/L; in series [2] (setting [14]) it was 865 µmol/L; in series [2] (setting [15]) it was 270 µmol/L. Moreover, the Reduction rate was under 5% in series [1] (setting [12]), under 12% in series [1] (setting [13]), under 4% in series [2] (setting [14]) and under 10% in series [2] (setting [15]). Further, the “Function to reduce the blood ammonia concentration” value in series [1] (hyperammonemia animal model, summary statement) is listed as “have no such function”.
